Measurements taken from patent US10294202B2, “Pyrrolidinones as herbicides” (FMC Corporation, priority 2013, dated 2019).

What was measured:
velvetleaf = test: Test C pre-/postemergence herbicide test; type: in vivo, Abutilon theophrasti
Summary of the method: (§1)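 Pre- and postemergence greenhouse screen. Preemergence treatment went onto freshly planted seeds in loam–sand soil; postemergence treatment went onto plants 2 to 18 cm tall at the 1- to 4-leaf stage in sphagnum peat/vermiculite medium. Scoring at 13 to 15 days used a 0–100 control scale.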

johnsongrass = test: Test C pre-/postemergence herbicide test; type: in vivo, Sorghum halepense
Summary of the method: as §1

morningglory [1] = test: Test C pre-/postemergence herbicide test; type: in vivo, Ipomoea coccinea
Summary of the method: as §1

chickweed = test: Test C postemergence herbicide test; type: in vivo, Stellaria media
Summary of the method: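 Greenhouse pot plants at 2 to 18 cm height (1- to 4-leaf stage) received a postemergence application of formulated test chemical. Visual ratings against untreated controls were made after 13 to 15 days, on a 0 (no effect) to 100 (complete control) scale.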

crabgrass, large = test: Test A pre-/postemergence herbicide test; type: in vivo, Digitaria sanguinalis
Summary of the method: (§2)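 Visual injury ratings, 0 = no effect, 100 = complete control, taken ~10 days after treatment against untreated greenhouse controls. Preemergence: directed soil spray onto seeded loam/sand pots. Postemergence: spray onto plants at one- to two-leaf stage, 2–10 cm tall.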

morningglory [2] = test: Test A pre-/postemergence herbicide test; type: in vivo, Ipomoea spp.
Summary of the method: as §2

wheat (winter wheat) = test: Test C pre-/postemergence herbicide test; type: in vivo, Triticum aestivum
Summary of the method: as §1

waterhemp = test: Test C pre-/postemergence herbicide test; type: in vivo, Amaranthus rudis
Summary of the method: as §1

[3] = Postemergence, 31 g ai/ha, scale 0 (no effect) to 100 (complete control)
[4] = Postemergence, 62 g ai/ha, scale 0 to 100 (0 no effect, 100 complete control)
[5] = Postemergence, 125 g ai/ha, scale 0 to 100 (0 no effect, 100 complete control)
[6] = Postemergence, 250 g ai/ha, scale 0 to 100 (0 no effect, 100 complete control)
[7] = Preemergence, 31 g ai/ha, scale 0 to 100, 0 is no effect and 100 is complete control
[8] = Preemergence, 62 g ai/ha, scale 0 to 100
[9] = Preemergence, 125 g ai/ha, scale 0 to 100 (0 no effect, 100 complete control)
[10] = Postemergence, 125 g ai/ha, 0 to 100 scale, 0 no effect, 100 complete control
[11] = Postemergence, 500 g ai/ha, 0 to 100 scale (0 no effect, 100 complete control)
[12] = Preemergence, 125 g ai/ha, visual rating on 0 to 100 scale (0 no effect, 100 complete control)
[13] = preemergence, 500 g ai/ha, 0 to 100 scale

With `O=C1NCC(c2ccc(F)c(C(F)(F)F)c2)C1C(=O)Nc1ccccc1F` (racemic) [Compound 76] the “Plant response rating, Velvetleaf” value (velvetleaf; [3]) was 0, the “Plant response rating, Velvetleaf” value (velvetleaf; [4]) was 0 and the “Plant response rating, Velvetleaf” value (velvetleaf; [5]) was 0. The “Plant response rating, Velvetleaf” value (velvetleaf; [6]) was 0, the “Velvetleaf plant response rating” value (velvetleaf; [7]) was 0 and the “Plant response rating, Velvetleaf” value (velvetleaf; [8]) was 0. For the same compound, the “Plant response rating, Velvetleaf” value (velvetleaf; [9]) was 25, the “Plant response rating (scale of 0 to 100), Velvetleaf” value (velvetleaf; Preemergence, 250 g ai/ha) was 35 and the “Plant response rating, Johnsongrass” value (johnsongrass; [3]) was 0. For the same compound, the “Plant response rating, Johnsongrass” value (johnsongrass; [4]) was 0, the “Plant response rating, Johnsongrass” value (johnsongrass; [5]) was 0 and the “Plant response rating, Johnsongrass” value (johnsongrass; [6]) was 0. The “Johnsongrass plant response rating” value (johnsongrass; [7]) was 20, the “Plant response rating, Johnsongrass” value (johnsongrass; [8]) was 45 and the “Plant response rating, Johnsongrass” value (johnsongrass; [9]) was 45. The “Plant response rating (scale of 0 to 100), Johnsongrass” value (johnsongrass; Preemergence, 250 g ai/ha) was 80, the “Plant response rating, Morningglory” value (morningglory [1]; [3]) was 10 and the “Plant response rating, Morningglory” value (morningglory [1]; [4]) was 10. For the same compound, the “Plant response rating, Morningglory” value (morningglory [1]; [5]) was 40, the “Plant response rating, Morningglory” value (morningglory [1]; [6]) was 40 and the “Morningglory plant response rating” value (morningglory [1]; [7]) was 0. The “Plant response rating, Morningglory” value (morningglory [1]; [8]) was 0, the “Plant response rating, Morningglory” value (morningglory [1]; [9]) was 40 and the “Plant response rating (scale of 0 to 100), Morningglory” value (morningglory [1]; Preemergence, 250 g ai/ha) was 40. The “Plant response rating, Chickweed” value (chickweed; 31 g ai/ha, scale 0 (no effect) to 100 (complete control)) was 40, the “Plant response rating, Chickweed” value (chickweed; 62 g ai/ha, scale 0 to 100 (0 no effect, 100 complete control)) was 40 and the “Plant response rating, Chickweed” value (chickweed; 125 g ai/ha, scale 0 to 100 (0 no effect, 100 complete control)) was 65. The “Plant response rating, Chickweed” value (chickweed; 250 g ai/ha, scale 0 to 100 (0 no effect, 100 complete control)) was 80, the “Plant response rating, Crabgrass, Large” value (crabgrass, large; [10]) was 90 and the “Plant response rating, Crabgrass, Large” value (crabgrass, large; [11]) was 90. For the same compound, the “Crabgrass, Large plant response rating” value (crabgrass, large; [12]) was 90, the “Plant response rating, Crabgrass, Large” value (crabgrass, large; [13]) was 90 and the “Plant response rating, Morningglory” value (morningglory [2]; [10]) was 20. For the same compound, the “Plant response rating, Morningglory” value (morningglory [2]; [11]) was 40, the “Morningglory plant response rating” value (morningglory [2]; [12]) was 0 and the “Plant response rating, Morningglory” value (morningglory [2]; [13]) was 50. The “Plant response rating, Wheat” value (wheat (winter wheat); [3]) was 0, the “Plant response rating, Wheat” value (wheat (winter wheat); [4]) was 0 and the “Plant response rating, Wheat” value (wheat (winter wheat); [5]) was 0. For the same compound, the “Plant response rating, Wheat” value (wheat (winter wheat); [6]) was 5, the “Wheat plant response rating” value (wheat (winter wheat); [7]) was 35 and the “Plant response rating, Wheat” value (wheat (winter wheat); [8]) was 45. The “Plant response rating, Wheat” value (wheat (winter wheat); [9]) was 70, the “Plant response rating (scale of 0 to 100), Wheat” value (wheat (winter wheat); Preemergence, 250 g ai/ha) was 80 and the “Plant response rating, Waterhemp” value (waterhemp; [3]) was 0. For the same compound, the “Plant response rating, Waterhemp” value (waterhemp; [4]) was 5, the “Plant response rating, Waterhemp” value (waterhemp; [5]) was 5 and the “Plant response rating, Waterhemp” value (waterhemp; [6]) was 10. For the same compound, the “Waterhemp plant response rating” value (waterhemp; [7]) was 50, the “Plant response rating, Waterhemp” value (waterhemp; [8]) was 50 and the “Plant response rating, Waterhemp” value (waterhemp; [9]) was 50. For the same compound, the “Plant response rating (scale of 0 to 100), Waterhemp” value (waterhemp; Preemergence, 250 g ai/ha) was 60.
